Results as given in ChEMBL document CHEMBL4130348, “Structure-activity relationship investigation for benzonaphthyridinone derivatives as novel potent Bruton's tyrosine kinase (BTK) irreversible inhibitors” (Eur J Med Chem, 2017).

Legend:
SKM-1 = experiment: Antiproliferative activity against human SKM1 cells after 72 hrs by CellTiter-Glo assay; format: functional; conditions: SKM-1, 72 h
OCI-AML-3 = experiment: Antiproliferative activity against human OCI-AML3 cells after 72 hrs by CellTiter-Glo assay; format: functional; conditions: OCI-AML-3, 72 h
NOMO-1 = experiment: Antiproliferative activity against human NOMO1 cells after 72 hrs by CellTiter-Glo assay; format: functional; conditions: NOMO-1, 72 h
Z-138 = experiment: Antiproliferative activity against human Z138 cells after 72 hrs by CellTiter-Glo assay; format: functional; conditions: Z-138, 72 h
[1] = Antiproliferative activity against human MOLM16 cells after 72 hrs by CellTiter-Glo assay; format: functional; conditions: MOLM16, 72 h
K562 = experiment: Antiproliferative activity against human K562 cells after 72 hrs by CellTiter-Glo assay; format: functional; conditions: K562, 72 h
HEL = experiment: Antiproliferative activity against human HEL cells after 72 hrs by CellTiter-Glo assay; format: functional
NB-4 = experiment: Antiproliferative activity against human NB4 cells after 72 hrs by CellTiter-Glo assay; format: functional; conditions: NB-4, 72 h
[2] = molecular target: Epidermal growth factor receptor (Homo sapiens) (UniProt P00533); experiment: Inhibition of TEL-fused EGFR (unknown origin) expressed in mouse BA/F3 cells after 72 hrs by CellTiter-Glo assay; format: cell-based
[3] = molecular target: Tyrosine-protein kinase JAK2 (Homo sapiens) (UniProt O60674); experiment: Inhibition of TEL-fused JAK2 (unknown origin) expressed in mouse BA/F3 cells after 72 hrs by CellTiter-Glo assay; format: cell-based
[4] = system: Epidermal growth factor receptor (Homo sapiens), P00533 [L858R,T790M]; experiment: Inhibition of TEL-fused EGFR T790M/L858R mutant (unknown origin) expressed in mouse BA/F3 cells after 72 hrs by CellTiter-Glo assay; format: cell-based
[5] = system: Epidermal growth factor receptor (Homo sapiens), P00533 [T790M]; experiment: Inhibition of TEL-fused EGFR T790M mutant (unknown origin) expressed in mouse BA/F3 cells after 72 hrs by CellTiter-Glo assay; format: cell-based
NCI-H358 = experiment: Antiproliferative activity against human NCI-H358 cells after 72 hrs by CellTiter-Glo assay; format: functional; conditions: NCI-H358, 72 h
HL-60 = experiment: Antiproliferative activity against human HL60 cells after 72 hrs by CellTiter-Glo assay; format: functional; conditions: HL-60, 72 h
[6] = system: Tyrosine-protein kinase JAK3; experiment: Inhibition of TEL-fused JAK3 (unknown origin) expressed in mouse BA/F3 cells after 72 hrs by CellTiter-Glo assay; conditions: Homo sapiens
U2932 = experiment: Antiproliferative activity against human U2932 cells after 72 hrs by CellTiter-Glo assay; format: functional; conditions: U2932, 72 h
SU-DHL-2 = experiment: Antiproliferative activity against human SUDHL2 cells after 72 hrs by CellTiter-Glo assay; format: functional; conditions: SU-DHL-2, 72 h
[7] = molecular target: Cytoplasmic tyrosine-protein kinase BMX (Homo sapiens) (UniProt P51813)
Description: Inhibition of TEL-fused BMX (unknown origin) expressed in mouse BA/F3 cells after 72 hrs by CellTiter-Glo assay

NCI-H1975 = experiment: Antiproliferative activity against human NCI-H1975 cells after 72 hrs by CellTiter-Glo assay; format: functional; conditions: NCI-H1975, 72 h
NCI-H460 = experiment: Antiproliferative activity against human NCI-H460 cells after 72 hrs by CellTiter-Glo assay; format: functional; conditions: NCI-H460, 72 h
MOLM-13 = experiment: Antiproliferative activity against human MOLM13 cells after 72 hrs by CellTiter-Glo assay; format: functional; conditions: MOLM-13, 72 h
OCI-AML2 = experiment: Antiproliferative activity against human OCI-AML2 cells after 72 hrs by CellTiter-Glo assay; format: functional; conditions: OCI-AML2, 72 h
MOLM-14 = experiment: Antiproliferative activity against human MOLM14 cells after 72 hrs by CellTiter-Glo assay; format: functional; conditions: MOLM-14, 72 h
cells = format: functional; conditions: Homo sapiens, CLL cell, 72 h
[8] = molecular target: T1, Tyrosine-protein kinase JAK3 (Homo sapiens, UniProt P52333); experiment: Inhibition of recombinant GST-tagged human JAK3 expressed in baculovirus expression system using poly (4:1 Glu, Tyr) as substrate preincubated for 1 hr followed by substrate addition measured after 1 hr by ADP-glo assay
T1 sequence (P52333 whole entry): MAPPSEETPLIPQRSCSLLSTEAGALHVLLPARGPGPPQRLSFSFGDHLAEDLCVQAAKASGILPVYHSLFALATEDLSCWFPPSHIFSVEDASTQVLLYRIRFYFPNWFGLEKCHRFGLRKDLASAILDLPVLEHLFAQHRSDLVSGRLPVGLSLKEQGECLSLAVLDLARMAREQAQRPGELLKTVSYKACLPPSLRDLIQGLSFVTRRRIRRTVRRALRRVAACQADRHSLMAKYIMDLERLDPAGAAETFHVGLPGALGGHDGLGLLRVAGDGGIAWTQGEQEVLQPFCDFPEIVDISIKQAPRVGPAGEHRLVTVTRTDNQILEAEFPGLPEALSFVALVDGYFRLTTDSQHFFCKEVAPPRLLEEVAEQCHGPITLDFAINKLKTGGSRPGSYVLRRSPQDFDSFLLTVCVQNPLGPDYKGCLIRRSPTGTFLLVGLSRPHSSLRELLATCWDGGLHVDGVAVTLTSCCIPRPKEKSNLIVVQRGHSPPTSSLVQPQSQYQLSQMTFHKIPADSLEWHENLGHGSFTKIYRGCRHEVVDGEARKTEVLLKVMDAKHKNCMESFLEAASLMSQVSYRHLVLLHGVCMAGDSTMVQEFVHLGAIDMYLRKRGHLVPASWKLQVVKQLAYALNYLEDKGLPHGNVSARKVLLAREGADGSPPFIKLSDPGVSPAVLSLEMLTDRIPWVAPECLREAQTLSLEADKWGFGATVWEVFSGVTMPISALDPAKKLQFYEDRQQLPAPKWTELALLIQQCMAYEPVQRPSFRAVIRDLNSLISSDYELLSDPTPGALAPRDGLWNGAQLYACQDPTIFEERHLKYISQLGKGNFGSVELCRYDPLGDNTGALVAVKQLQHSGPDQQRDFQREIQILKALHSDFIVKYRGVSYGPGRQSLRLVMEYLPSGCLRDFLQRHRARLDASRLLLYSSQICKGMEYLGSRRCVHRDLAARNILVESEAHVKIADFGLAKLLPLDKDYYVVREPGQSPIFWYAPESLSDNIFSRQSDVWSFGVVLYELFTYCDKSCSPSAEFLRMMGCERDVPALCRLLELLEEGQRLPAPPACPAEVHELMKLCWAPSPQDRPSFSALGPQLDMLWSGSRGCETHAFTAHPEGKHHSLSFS

A-431 = experiment: Antiproliferative activity against human A431 cells after 72 hrs by CellTiter-Glo assay; format: functional; conditions: A-431, 72 h
[9] = Antiproliferative activity against human PF138 cells after 72 hrs by CellTiter-Glo assay; format: functional
Ramos = experiment: Antiproliferative activity against human Ramos cells after 72 hrs by CellTiter-Glo assay; format: functional

Epidermal growth factor receptor (Homo sapiens), P00533 [T790M], sequence (P00533 whole entry T790M, the tested form may be a part): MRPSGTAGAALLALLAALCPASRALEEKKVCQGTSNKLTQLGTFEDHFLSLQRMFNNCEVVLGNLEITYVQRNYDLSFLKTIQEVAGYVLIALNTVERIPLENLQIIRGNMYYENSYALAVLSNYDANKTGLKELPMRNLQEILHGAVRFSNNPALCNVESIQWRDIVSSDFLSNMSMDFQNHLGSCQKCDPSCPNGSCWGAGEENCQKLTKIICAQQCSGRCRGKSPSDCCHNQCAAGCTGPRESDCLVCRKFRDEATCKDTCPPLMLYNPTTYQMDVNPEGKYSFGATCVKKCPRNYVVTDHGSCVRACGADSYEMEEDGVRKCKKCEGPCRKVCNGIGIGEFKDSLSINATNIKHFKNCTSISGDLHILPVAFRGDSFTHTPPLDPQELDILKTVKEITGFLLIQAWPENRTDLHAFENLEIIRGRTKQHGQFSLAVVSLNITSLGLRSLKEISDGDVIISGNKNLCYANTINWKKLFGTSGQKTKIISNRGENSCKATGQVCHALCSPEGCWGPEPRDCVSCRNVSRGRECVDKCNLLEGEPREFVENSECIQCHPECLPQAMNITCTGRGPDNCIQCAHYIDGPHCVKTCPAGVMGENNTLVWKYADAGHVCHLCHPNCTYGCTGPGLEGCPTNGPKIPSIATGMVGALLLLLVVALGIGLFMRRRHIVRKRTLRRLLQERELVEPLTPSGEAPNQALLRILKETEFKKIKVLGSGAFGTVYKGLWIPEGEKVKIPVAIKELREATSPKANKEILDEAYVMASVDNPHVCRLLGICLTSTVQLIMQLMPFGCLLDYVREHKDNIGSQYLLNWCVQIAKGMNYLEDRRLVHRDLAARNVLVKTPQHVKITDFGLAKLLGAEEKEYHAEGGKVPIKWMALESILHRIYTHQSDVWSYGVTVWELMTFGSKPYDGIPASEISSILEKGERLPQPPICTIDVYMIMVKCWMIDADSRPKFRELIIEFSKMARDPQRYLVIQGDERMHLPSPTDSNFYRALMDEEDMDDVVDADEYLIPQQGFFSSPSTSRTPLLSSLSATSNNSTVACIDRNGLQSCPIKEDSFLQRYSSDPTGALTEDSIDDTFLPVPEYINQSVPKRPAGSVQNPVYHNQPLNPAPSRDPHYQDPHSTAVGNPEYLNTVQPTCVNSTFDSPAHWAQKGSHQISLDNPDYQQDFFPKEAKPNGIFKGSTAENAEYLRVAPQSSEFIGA
Epidermal growth factor receptor (Homo sapiens), P00533 [L858R,T790M], sequence (P00533 whole entry T790M/L858R, looked up, the tested form may be a part): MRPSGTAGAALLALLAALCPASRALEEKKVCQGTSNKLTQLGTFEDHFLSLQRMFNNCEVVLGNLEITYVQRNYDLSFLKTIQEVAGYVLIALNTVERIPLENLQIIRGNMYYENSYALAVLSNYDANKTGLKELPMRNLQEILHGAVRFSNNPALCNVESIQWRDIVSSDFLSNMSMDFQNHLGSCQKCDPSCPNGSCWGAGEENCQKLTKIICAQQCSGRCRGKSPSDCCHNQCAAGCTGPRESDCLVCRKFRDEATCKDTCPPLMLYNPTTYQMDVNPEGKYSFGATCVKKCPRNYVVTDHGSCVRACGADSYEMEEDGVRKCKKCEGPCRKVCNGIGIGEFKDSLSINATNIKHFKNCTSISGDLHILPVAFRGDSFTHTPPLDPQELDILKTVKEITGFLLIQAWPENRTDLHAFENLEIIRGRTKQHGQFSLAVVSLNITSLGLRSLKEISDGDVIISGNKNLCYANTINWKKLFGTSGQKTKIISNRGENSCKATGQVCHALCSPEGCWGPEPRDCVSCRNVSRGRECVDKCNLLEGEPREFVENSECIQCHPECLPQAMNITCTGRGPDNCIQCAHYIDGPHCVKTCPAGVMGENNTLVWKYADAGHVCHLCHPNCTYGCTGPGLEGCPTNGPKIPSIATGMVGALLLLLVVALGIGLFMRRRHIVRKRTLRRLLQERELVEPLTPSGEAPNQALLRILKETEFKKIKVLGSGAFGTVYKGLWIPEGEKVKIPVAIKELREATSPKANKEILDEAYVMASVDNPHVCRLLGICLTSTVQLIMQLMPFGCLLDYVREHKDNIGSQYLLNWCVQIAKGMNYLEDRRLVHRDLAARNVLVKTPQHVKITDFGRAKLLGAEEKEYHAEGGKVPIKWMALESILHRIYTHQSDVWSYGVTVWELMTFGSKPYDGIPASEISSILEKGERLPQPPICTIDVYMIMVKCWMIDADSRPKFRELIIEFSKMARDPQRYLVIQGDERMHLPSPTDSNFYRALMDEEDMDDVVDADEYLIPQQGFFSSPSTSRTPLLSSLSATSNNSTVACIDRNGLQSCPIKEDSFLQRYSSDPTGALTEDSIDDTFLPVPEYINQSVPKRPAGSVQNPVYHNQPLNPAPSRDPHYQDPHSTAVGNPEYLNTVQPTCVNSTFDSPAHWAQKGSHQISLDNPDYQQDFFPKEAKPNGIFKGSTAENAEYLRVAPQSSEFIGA
Epidermal growth factor receptor (Homo sapiens), sequence (P00533 whole entry, the tested form may be a part): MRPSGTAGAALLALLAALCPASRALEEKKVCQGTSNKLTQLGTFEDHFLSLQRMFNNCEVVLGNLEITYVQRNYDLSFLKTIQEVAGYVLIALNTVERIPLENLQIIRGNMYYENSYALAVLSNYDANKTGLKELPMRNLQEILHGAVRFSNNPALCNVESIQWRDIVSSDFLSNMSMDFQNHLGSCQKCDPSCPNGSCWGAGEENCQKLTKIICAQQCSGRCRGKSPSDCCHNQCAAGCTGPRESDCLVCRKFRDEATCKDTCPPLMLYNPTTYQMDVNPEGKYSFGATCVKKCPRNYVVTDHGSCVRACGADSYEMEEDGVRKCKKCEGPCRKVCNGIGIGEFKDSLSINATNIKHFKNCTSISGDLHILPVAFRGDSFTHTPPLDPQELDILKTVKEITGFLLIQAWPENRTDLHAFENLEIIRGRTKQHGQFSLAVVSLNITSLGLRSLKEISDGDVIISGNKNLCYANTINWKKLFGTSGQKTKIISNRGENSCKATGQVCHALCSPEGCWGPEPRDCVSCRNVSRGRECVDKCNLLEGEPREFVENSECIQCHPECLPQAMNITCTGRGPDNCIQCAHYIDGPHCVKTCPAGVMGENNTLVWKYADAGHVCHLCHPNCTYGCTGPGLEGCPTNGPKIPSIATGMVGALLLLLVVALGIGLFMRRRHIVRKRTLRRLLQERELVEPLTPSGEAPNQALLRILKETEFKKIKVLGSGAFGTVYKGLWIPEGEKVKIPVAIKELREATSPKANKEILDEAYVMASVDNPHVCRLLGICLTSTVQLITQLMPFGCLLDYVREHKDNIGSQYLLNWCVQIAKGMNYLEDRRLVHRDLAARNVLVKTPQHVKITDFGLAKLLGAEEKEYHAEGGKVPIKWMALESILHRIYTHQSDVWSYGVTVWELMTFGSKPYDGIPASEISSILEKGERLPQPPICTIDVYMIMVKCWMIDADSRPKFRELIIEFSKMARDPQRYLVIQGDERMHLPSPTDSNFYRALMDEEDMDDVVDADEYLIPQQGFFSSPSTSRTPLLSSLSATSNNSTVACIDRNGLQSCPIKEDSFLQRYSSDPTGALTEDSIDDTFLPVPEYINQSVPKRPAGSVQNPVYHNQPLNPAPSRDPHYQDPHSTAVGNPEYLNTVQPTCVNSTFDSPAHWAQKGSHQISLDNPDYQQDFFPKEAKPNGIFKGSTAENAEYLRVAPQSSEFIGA
Cytoplasmic tyrosine-protein kinase BMX (Homo sapiens), sequence (P51813 whole entry): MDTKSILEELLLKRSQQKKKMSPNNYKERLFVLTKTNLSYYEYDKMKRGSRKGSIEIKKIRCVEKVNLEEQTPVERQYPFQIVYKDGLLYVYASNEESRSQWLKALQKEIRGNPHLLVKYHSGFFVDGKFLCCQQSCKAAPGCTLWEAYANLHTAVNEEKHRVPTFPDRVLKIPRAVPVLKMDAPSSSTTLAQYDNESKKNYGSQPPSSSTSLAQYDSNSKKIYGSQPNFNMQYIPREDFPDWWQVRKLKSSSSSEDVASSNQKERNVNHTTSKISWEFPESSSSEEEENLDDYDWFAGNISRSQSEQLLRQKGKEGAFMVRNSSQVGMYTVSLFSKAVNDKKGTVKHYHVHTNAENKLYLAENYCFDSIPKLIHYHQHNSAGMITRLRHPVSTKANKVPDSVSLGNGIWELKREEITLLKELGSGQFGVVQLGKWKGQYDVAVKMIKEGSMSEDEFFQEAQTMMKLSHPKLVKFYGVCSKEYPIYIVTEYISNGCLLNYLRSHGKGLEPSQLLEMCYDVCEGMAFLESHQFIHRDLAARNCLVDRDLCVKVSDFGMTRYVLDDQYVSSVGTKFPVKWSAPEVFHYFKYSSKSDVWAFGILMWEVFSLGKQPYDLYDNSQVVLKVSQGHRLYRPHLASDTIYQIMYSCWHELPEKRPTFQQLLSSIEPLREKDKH

GI50 (SKM-1) [µM]	GI50 (OCI-AML-3) [µM]	GI50 (K562) [µM]	GI50 [2] [µM]	GI50 [3] [µM]	GI50 [4] [µM]	GI50 [5] [µM]	GI50 (NCI-H358) [µM]	GI50 (HL-60) [µM]	GI50 [6] [µM]	GI50 (SU-DHL-2) [µM]	GI50 [7] [µM]	GI50 (NCI-H1975) [µM]	GI50 (NCI-H460) [µM]	Compound	GI50 (NOMO-1) [µM]	GI50 (Z-138) [µM]	GI50 [1] [µM]	GI50 (HEL) [µM]	GI50 (NB-4) [µM]	GI50 (U2932) [µM]	further results
> 10	> 10	> 10	> 10	> 10	> 10	> 10	> 10	> 10	> 10	> 10	> 10	> 10	> 10	CCC(=O)Nc1cc(-n2c(=O)ccc3cnc4ccc(-n5cccn5)cc4c32)ccc1C	> 10	> 10	> 10	> 10	> 10	> 10	GI50 (MOLM-13): > 10 µM; GI50 (OCI-AML2): > 10 µM; GI50 (MOLM-14): > 10 µM; GI50 (cells): > 10 µM; IC50 [8]: > 10 µM; GI50 (A-431): > 10 µM; GI50 [9]: > 10 µM; GI50 (Ramos): > 10 µM
2.5	5.6	> 10	2.66	2.1	1.59	0.918	> 10	3.8	9.67	> 10	0.018	5.57	> 10	C=CC(=O)Nc1cc(-n2c(=O)ccc3cnc4ccc(-n5cccn5)cc4c32)ccc1C	4.9	8.5	1.4	1.8	3.7	7.9	GI50 (MOLM-13): 0.59 µM; GI50 (OCI-AML2): 7.8 µM; GI50 (MOLM-14): 1.5 µM; GI50 (cells): 3.7 µM; IC50 [8]: > 10 µM; GI50 (A-431): 5.1 µM; GI50 [9]: 8.8 µM; GI50 (Ramos): 3.5 µM
